According to patent US9594084B2, “Phosphorylation of histones and uses thereof” (H. LEE MOFFITT CANCER CENTER AND RESEARCH INSTITUTE, priority 2012, dated 2017):

Legend:
[1] = tested on: pTyr37-H2B upstream of the Hist1 cluster; assay: Native ChIP-qPCR with pTyr37-H2B antibody at Hist1 Site I and II in synchronized MEFs; assay type: cell-based, mouse; settings: 6.30 hours post-release
Method: FIG. 1A is a diagram illustrating the position of histone genes in mouse Hist1 subcluster 1 showing two pTyr37-H2B binding sites. Starting nucleotide position is shown above. Subclusterl is conserved between human and mouse. FIG. 1B-1D are bar graphs showing Native Chromatin immunoprecipitation (ChIP) (% input DNA) in synchronized MEFs treated with WEE1 inhibitor or untreated and harvested at 0 and 6.30 hours post-release. Native ChIP was performed using pTyr37-H2B or IgG antibodies followed by quantitative PCR using primers corresponding to Site I (FIG. 1B), Site II (FIG. 1C) and control site (FIG. 1D). Data shown are representative of three independent experiments. *p=0.001; **p=0.006. FIG. 1E is bar graph showing ChIP in synchronized MEFs harvested at 0 and 6.30 hours post-release using WEE1 or IgG antibodies followed by quantitative PCR using primers corresponding to Site II. […] FIG. 1F is bar graph showing ChIP in cells transfected with control or WEE1 siRNAs performed using pTyr37-H2B antibodies followed by quantitative PCR using primers corresponding to Site II. […]
As a first step, extensive standardization of pTyr37-H2B antibodies were performed for its usage in ChIP. […] Pellets were resuspended and the resulting DNA was quantified on a NanoDrop spectrophotometer. Extrapolation to the original chromatin volume allowed quantitation of the total chromatin yield. […]

[2] = tested on: core histone genes located in Hist1 cluster; assay: Quantitative RT-PCR of core histone transcripts in synchronized MEFs; assay type: cell-based, mouse; settings: MK1775 0.625 μM, 14 hr, after 6.30 hours post-release (compare 8.30 hours)
IDH2 gene transcription = assay: qRT-PCR of IDH2 in cancer cell lines; assay type: cell-based
Text: (FIG. 42a-42e) RNA was isolated from cells treated with WEE1 inhibitor (or siRNA) followed by qRT-PCR using IDH2 and actin primers.
Total RNA was isolated followed by qRT-PCR with IDH2 and actin specific primers. As control, U118 cell line was used which has low levels of WEE1 (unpublished data).

WEE1 = WEE1 (Homo sapiens, UniProt P30291); assay: H4 Tyr88 peptide ELISA in vitro kinase assay with purified WEE1; assay type: biochemical; design: GST; purchased Invitrogen; settings: read at 450 nm
Sequence of WEE1 (P30291 whole entry): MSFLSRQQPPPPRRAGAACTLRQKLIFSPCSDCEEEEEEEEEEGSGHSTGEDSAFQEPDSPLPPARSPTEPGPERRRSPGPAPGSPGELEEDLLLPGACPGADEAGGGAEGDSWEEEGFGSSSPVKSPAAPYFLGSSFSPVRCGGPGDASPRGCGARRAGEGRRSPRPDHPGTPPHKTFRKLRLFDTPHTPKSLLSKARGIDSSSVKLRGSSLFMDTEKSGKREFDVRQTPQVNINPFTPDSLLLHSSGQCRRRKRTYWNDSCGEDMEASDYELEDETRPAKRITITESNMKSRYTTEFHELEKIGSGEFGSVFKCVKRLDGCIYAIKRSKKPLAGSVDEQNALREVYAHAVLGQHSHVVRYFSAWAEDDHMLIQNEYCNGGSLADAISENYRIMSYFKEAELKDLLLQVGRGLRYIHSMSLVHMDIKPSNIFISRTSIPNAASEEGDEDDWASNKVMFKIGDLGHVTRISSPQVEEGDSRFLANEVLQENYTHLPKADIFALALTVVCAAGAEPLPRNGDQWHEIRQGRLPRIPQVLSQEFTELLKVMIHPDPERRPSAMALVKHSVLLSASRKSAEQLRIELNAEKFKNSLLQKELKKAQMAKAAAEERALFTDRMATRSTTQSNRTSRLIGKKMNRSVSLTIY
Method: Biotinylated unphosphorylated and Tyr88-phosphorylated H4 peptides were immobilized on streptavdin 96-well plates. […] ELISA was performed as described in text.
WEE1 and Ack1 are two non-receptor tyrosine kinases or NRTKs that have known nuclear functions. To determine whether WEE1 and Ack1 can directly target H4 for Tyr88-phosphorylation, this study performed in vitro kinase assay. In brief, the Streptavidin coated 96-well plates (R&D systems) were incubated with biotinylated H4-derived peptide […] (SEQ ID NO: 64) for 1 hour. The plates were washed and the purified WEE1 or Ack1 were added in kinase buffer (20 mM HEPES, 150 mM NaCl, 0.5% Triton X-100, 10% Glycerol, phosphatase and protease inhibitors) containing ATP and MgCl2. After 2 hours of incubation, plates were washed with phosphate buffered saline containing 0.1% Tween 20 (PBST) and blocked in 3% BSA. The pY88-H4 antibodies (at 1:500 dilution) were added and incubated for 1 hour. Unbound antibodies were washed and HRP-conjugated anti-mouse secondary Antibodies (1:2000) were added. Magnitude of phosphorylation was detected using developer solution (OPD tablets, Sigma) and the plates were read at 450 nm. As a negative control, no kinase and no peptide reactions were used. The biotinylated phosphopeptide […]p[…] (SEQ ID NO: 65) was used as a positive control.

For `C=CCn1c(=O)c2cnc(Nc3ccc(N4CCN(C)CC4)cc3)nc2n1-c1cccc(C(C)(C)O)n1` [MK-1775], the “occurrence of pTyr37-H2B at site I and II” value [1] was “significantly reduced”, the “histone mRNA levels” value [2] was “significant increase” and the “transcript levels of the IDH2 gene” value (IDH2 gene transcription; LNCaP (prostate), 1 uM, 24 hours) was “significant increase”. The “transcript levels of the IDH2 gene” value (IDH2 gene transcription; U87 (GBM), 1 uM, 24 hours) was “significant increase”, the “IDH2 mRNA” value (IDH2 gene transcription; U118 cell line (low levels of WEE1), 1 uM, 24 hours) was “not increased” and the “transcript levels of the IDH2 gene” value (IDH2 gene transcription; WM1366 (melanoma), 1 uM, 24 hours) was “significant increase”. For the same compound, the IDH2 transcript levels (IDH2 gene transcription; summary statement) was “increased” and the “H4 Tyr88-phosphorylation by WEE1” value (WEE1) was “significantly decreased”.
